Source: patent publication US9358262B2, “Use of antioxidant-enriched fermented blueberry extracts in the treatment of diabetes” (priority 2003, dated 2016)
Marks after values point to notes of the source that are not given here.

System: KKA^y mice
Test: Chronic 4-week treatment of diabetic KKA^y mice in drinking water
Type: in vivo, mouse
Description: Mice were fasted for 16 h. A glucose solution was administered by intragastric gavage at a dose of 1 g/kg body weight. The blood glucose concentration was measured at 0, 30, 60, 90, 120 min after glucose administration in the blood collected from the tip of the tail vein, using an Accu-Chek glucose meter (Roche, Montreal, QC, Canada).
At the end of the experiment, blood samples were collected from renal artery during exsanguinations carried out under anesthesia using heparinized tools. The samples were centrifuged at 3000 g for 10 min at 4° C. The plasma samples were used for the analyses of biochemical parameters. Plasma adiponectin, insulin and leptin were measured using radioimmuno assay (RIA) kits (Millipore, Montreal, QC, Canada).
In preliminary experiments, three different doses of BJ, namely 20, 40, 80 ml/kg/day, were incorporated in the drinking water and provided to mice for one week. […] Therefore, this dose was used for the chronic treatment studies described here.
Forty-two 7 week-old KKA^y mice were randomly divided into 6 groups (n=7) which received either water, normal blueberry juice (NJ) (80 ml/kg/day), biotransformed blueberry juice (BJ) (80 ml/kg/day; prepared as described in Example 8), or Metformin (0.85 g/kg/day) (Meglasson M D et al., supra) in drinking water. […] The sixth and final group received SW but had unrestricted access to solid food. Baseline measurements of fed blood glucose levels, body weight, food intake and water consumption were taken daily at 11.00 a.m. At the onset of experiments and after 4 weeks, an oral glucose tolerance test (OGTT) was performed, as described in Example 8.

[1] = NJ, BJ 80 ml/kg/day, MET 0.85 g/kg/day, 4 weeks

`CN(C)C(=N)N=C(N)N` [MET, Metformin] was tested, and the “Rise of circulating adiponectin above values of control animals” value (4 weeks) was “neither NJ nor Metformin treatments could modify the low level of adiponectin”, the “Reduction of circulating insulin levels vs controls” value (4 weeks, BJ effect not statistically significant) was “normalized” and the “Drop of OGTT AUC between the onset and the end of treatment” value (4 weeks, glucose 1 g/kg by gavage) was 38%. For the same molecule, the “Adiponectin (plasma)” value [1] was 5.9 ± 0.6^a μg/ml, the “Insulin (plasma)” value [1] was 1.7 ± 0.5^b ng/ml and the “Leptin (plasma)” value [1] was 27.6 ± 2.9^a ng/ml. For the same molecule, the “Reduction of food intake as compared to controls” value [1] was 30%, the “Time to reach the maximum (BJ) or normalising (Metformin) effect on glycemia” value (chronic treatment in drinking water) was at most 4 days and the “Glycemia level (fed state)” value (during 4-week treatment) was 10 mM. The “Body weight loss as compared to controls” value (end of the 4-week treatment period) was 4%.
